Data as given in ChEMBL document CHEMBL1201861, “Genomics of Drug Sensitity in Cancer screening data, Wellcome Trust Sanger Institute”.

Legend:
COR-L23 = assay: cells; format: functional, cell-based; conditions: Homo sapiens;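 also: cell viability assay measuring how strongly compounds suppress growth of COR-L23 cells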
Description: SANGER: Inhibition of human COR-L23 cell growth in a cell viability assay.

CP50-MEL-B = assay: cells; format: functional, cell-based; conditions: Homo sapiens;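 also: growth inhibition of the human cell line, measured with a cell viability read-out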
Description: SANGER: Inhibition of human CP50-MEL-B cell growth in a cell viability assay.

ESS-1 = assay: cells; format: functional, cell-based; conditions: Homo sapiens;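 also: growth inhibition of human ESS-1 cells, read out by a cell viability assay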
Description: SANGER: Inhibition of human ESS-1 cell growth in a cell viability assay.

FaDu = assay: cells; format: functional, cell-based; conditions: Homo sapiens;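 also: cell viability readout of growth inhibition in FaDu cells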
Description: SANGER: Inhibition of human FADU cell growth in a cell viability assay.

FTC-133 = assay: cells; format: functional, cell-based; conditions: Homo sapiens
GMS-10 = assay: cells; format: functional, cell-based; conditions: Homo sapiens;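 also: growth inhibition of GMS-10 cells, read out as cell viability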
Description: SANGER: Inhibition of human GMS-10 cell growth in a cell viability assay.

HOP-92 = assay: cells; format: functional, cell-based; conditions: Homo sapiens;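 also: cell viability readout, with IC50 reflecting inhibition of HOP-92 cell growth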
Description: SANGER: Inhibition of human HOP-92 cell growth in a cell viability assay.

HOS = assay: cells; format: functional, cell-based; conditions: Homo sapiens;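 also: growth inhibition of human HOS cells, read out with a cell viability assay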
Description: SANGER: Inhibition of human HOS cell growth in a cell viability assay.

HT-1080 = assay: cells; format: functional, cell-based; conditions: Homo sapiens
Description: SANGER: Inhibition of human HT-1080 cell growth in a cell viability assay.

HuCCT-1 = assay: cells; format: functional, cell-based, HuCCT1; conditions: Homo sapiens;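 also: growth inhibition of HuCCT-1 cells, read out by a cell viability assay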
Description: SANGER: Inhibition of human HuCCT1 cell growth in a cell viability assay.

HuP-T3 = assay: cells; format: functional, cell-based; conditions: Homo sapiens;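 also: HuP-T3 cell growth inhibition, read out with a cell viability assay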
Description: SANGER: Inhibition of human HuP-T3 cell growth in a cell viability assay.

KYSE-510 = assay: cells; format: functional, cell-based; conditions: Homo sapiens;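 also: cell viability readout used to measure how strongly growth of the cell line is suppressed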
Description: SANGER: Inhibition of human KYSE-510 cell growth in a cell viability assay.

MFE-280 = assay: cells; format: functional, cell-based; conditions: Homo sapiens;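 also: growth inhibition of MFE-280 cells, determined with a cell viability readout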
Description: SANGER: Inhibition of human MFE-280 cell growth in a cell viability assay.

NCI-H1623 = assay: cells; format: functional, cell-based; conditions: Homo sapiens;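 also: cell viability assay used as the read-out for growth inhibition of NCI-H1623 cells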
Description: SANGER: Inhibition of human NCI-H1623 cell growth in a cell viability assay.

NCI-H1693 = assay: cells; format: functional, cell-based; conditions: Homo sapiens;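 also: growth inhibition of the human cell line, read out with a cell viability assay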
Description: SANGER: Inhibition of human NCI-H1693 cell growth in a cell viability assay.

NCI-H2342 = assay: cells; format: functional, cell-based; conditions: Homo sapiens;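 also: growth inhibition of the cancer cell line, determined with a cell viability assay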
Description: SANGER: Inhibition of human NCI-H2342 cell growth in a cell viability assay.

NCI-H2452 = assay: cells; format: functional, cell-based; conditions: Homo sapiens;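 also: growth inhibition of NCI-H2452 cells, read out with a cell viability assay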
Description: SANGER: Inhibition of human NCI-H2452 cell growth in a cell viability assay.

NCI-H441 = assay: cells; format: functional, cell-based; conditions: Homo sapiens;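 also: growth inhibition of NCI-H441 cells, read out with a cell viability assay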
Description: SANGER: Inhibition of human NCI-H441 cell growth in a cell viability assay.

OVCAR-5 = assay: cells; format: functional, cell-based; conditions: Homo sapiens;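 also: growth inhibition of human OVCAR-5 cells, read out with a cell viability assay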
Description: SANGER: Inhibition of human OVCAR-5 cell growth in a cell viability assay.

SCC-4 = assay: cells; format: functional, cell-based; conditions: Homo sapiens;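 also: growth inhibition of human SCC-4 cells, read out as cell viability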
Description: SANGER: Inhibition of human SCC-4 cell growth in a cell viability assay.

SCC-9 = assay: cells; format: functional, cell-based; conditions: Homo sapiens;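 also: Read-out is a cell viability assay, with values giving inhibition of cell growth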
Description: SANGER: Inhibition of human SCC-9 cell growth in a cell viability assay.

SJRH30 = assay: cells; format: functional, cell-based; conditions: Homo sapiens;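 also: growth inhibition of human SJRH30 cells, read out with a cell viability assay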
Description: SANGER: Inhibition of human SJRH30 cell growth in a cell viability assay.

SK-MES-1 = assay: cells; format: functional, cell-based; conditions: Homo sapiens;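 also: growth inhibition of human SK-MES-1 cells, read out with a cell viability assay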
Description: SANGER: Inhibition of human SK-MES-1 cell growth in a cell viability assay.

SK-N-AS = assay: cells; format: functional, cell-based; conditions: Homo sapiens;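 also: growth inhibition of human SK-N-AS cells, measured with a cell viability assay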
Description: SANGER: Inhibition of human SK-N-AS cell growth in a cell viability assay.

SKG-IIIa = assay: cells; format: functional, cell-based; conditions: Homo sapiens;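 also: cell growth inhibition, read out with a cell viability assay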
Description: SANGER: Inhibition of human SKG-IIIa cell growth in a cell viability assay.

SW1088 = assay: cells; format: functional, cell-based; conditions: Homo sapiens;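 also: growth inhibition of human SW1088 cells, read out by a cell viability assay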
Description: SANGER: Inhibition of human SW1088 cell growth in a cell viability assay.

T84 = assay: cells; format: functional, cell-based; conditions: Homo sapiens;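 also: growth inhibition measured with a cell viability readout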
Description: SANGER: Inhibition of human T84 cell growth in a cell viability assay.

CWR22R = assay: cells; format: functional, cell-based; conditions: Homo sapiens, 22Rv1;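 also: growth inhibition of 22Rv1 cells, read out with a cell viability assay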
Description: SANGER: Inhibition of human 22RV1 cell growth in a cell viability assay.

5637 = assay: cells; format: functional, cell-based; conditions: Homo sapiens
Description: SANGER: Inhibition of human 5637 cell growth in a cell viability assay.

A673 = assay: cells; format: functional, cell-based; conditions: Homo sapiens;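 also: growth inhibition of human A673 cells, read out through a cell viability assay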
Description: SANGER: Inhibition of human A673 cell growth in a cell viability assay.

ABC-1 = assay: cells; format: functional, cell-based; conditions: Homo sapiens;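 also: growth inhibition of human ABC-1 cells, read out by a cell viability assay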
Description: SANGER: Inhibition of human ABC-1 cell growth in a cell viability assay.

BEN = assay: cells; format: functional, cell-based; conditions: Homo sapiens;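 also: growth inhibition of the BEN cell line, read out with a cell viability assay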
Description: SANGER: Inhibition of human BEN cell growth in a cell viability assay.

BFTC-905 = assay: cells; format: functional, cell-based; conditions: Homo sapiens
Description: SANGER: Inhibition of human BFTC-905 cell growth in a cell viability assay.

BXPC-3 = assay: cells; format: functional, cell-based; conditions: Homo sapiens;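 also: growth inhibition of human BxPC-3 cells, read out by a cell viability assay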
Description: SANGER: Inhibition of human BxPC-3 cell growth in a cell viability assay.

TYK-nu = assay: cells; format: functional, cell-based; conditions: Homo sapiens;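 also: growth inhibition of human TYK-nu cells, read out by a cell viability assay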
Description: SANGER: Inhibition of human TYK-nu cell growth in a cell viability assay.

U2OS = assay: cells; format: functional, cell-based, U-2-OS; conditions: Homo sapiens;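 also: growth inhibition of human U-2-OS cells, determined with a cell viability assay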
Description: SANGER: Inhibition of human U-2-OS cell growth in a cell viability assay.

U-251 = assay: cells; format: functional, cell-based; conditions: Homo sapiens;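 also: growth inhibition of human U-251 cells, read out through a cell viability assay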
Description: SANGER: Inhibition of human U251 cell growth in a cell viability assay.

CAMA-1 = assay: cells; format: functional, cell-based; conditions: Homo sapiens;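 also: growth inhibition of CAMA-1 cells, read out with a cell viability assay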
Description: SANGER: Inhibition of human CAMA-1 cell growth in a cell viability assay.

CHL-1 = assay: cells; format: functional, cell-based; conditions: Homo sapiens;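 also: cell growth inhibition, read out with a cell viability assay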
Description: SANGER: Inhibition of human CHL-1 cell growth in a cell viability assay.

COLO-680N = assay: cells; format: functional, cell-based; conditions: Homo sapiens;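 also: cell viability assay used to measure inhibition of COLO-680N cell growth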
Description: SANGER: Inhibition of human COLO-680N cell growth in a cell viability assay.

BC1 cell line = assay: SANGER: Inhibition of human BC-1 cell growth in a cell viability assay.; format: functional, cell-based; conditions: Homo sapiens, BC1

| SMILES | IC50 (COR-L23) [µM] | IC50 (CP50-MEL-B) [µM] | IC50 (ESS-1) [µM] | IC50 (FaDu) [µM] | IC50 (FTC-133) [µM] | IC50 (GMS-10) [µM] | IC50 (HOP-92) [µM] | IC50 (HOS) [µM] | IC50 (HT-1080) [µM] | IC50 (HuCCT-1) [µM] | IC50 (HuP-T3) [µM] | IC50 (KYSE-510) [µM] | IC50 (MFE-280) [µM] | IC50 (NCI-H1623) [µM] | IC50 (NCI-H1693) [µM] | IC50 (OVCAR-5) [µM] | IC50 (SCC-4) [µM] | IC50 (SJRH30) [µM] | IC50 5637 [µM] | IC50 (BEN) [µM] | other results |
| --- | --- | --- | --- | --- | --- | --- | --- | --- | --- | --- | --- | --- | --- | --- | --- | --- | --- | --- | --- | --- | --- |
| CN(C)CCOc1ccc(-c2nc(-c3ccncc3)c(-c3ccc4c(c3)CC/C4=N\O)[nH]2)cc1 [SB590885] | > 5 | 1.73 | > 5 | > 5 | > 5 | > 5 | 1.11 | > 5 | > 5 | > 5 | > 5 | > 5 | > 5 | > 5 | > 5 | > 5 | > 5 | > 5 | > 5 | > 5 | IC50 (NCI-H2342): > 5 µM; IC50 (NCI-H2452): > 5 µM; IC50 (NCI-H441): > 5 µM; IC50 (SCC-9): > 5 µM; IC50 (SK-MES-1): > 5 µM; IC50 (SK-N-AS): > 5 µM; IC50 (SKG-IIIa): > 5 µM; IC50 (SW1088): > 5 µM; IC50 (T84): > 5 µM; IC50 (CWR22R): > 5 µM; IC50 (A673): > 5 µM; IC50 (ABC-1): > 5 µM; IC50 (BFTC-905): > 5 µM; IC50 (BXPC-3): > 5 µM; IC50 (TYK-nu): 1.8 µM; IC50 (U2OS): > 5 µM; IC50 (U-251): > 5 µM; IC50 (CAMA-1): > 5 µM; IC50 (CHL-1): > 5 µM; IC50 (COLO-680N): > 5 µM |
| NC1(c2ccc(-c3nc4ccn5c(=O)[nH]nc5c4cc3-c3ccccc3)cc2)CCC1 [MK-2206] | > 4 | > 4 | > 4 | > 4 | > 4 | > 4 | 0.872 | 1.5 | > 4 | > 4 | > 4 | > 4 | 0.965 | 3.41 | > 4 | > 4 | > 4 | 3.69 | > 4 | > 4 | IC50 (NCI-H2342): > 4 µM; IC50 (NCI-H2452): > 4 µM; IC50 (NCI-H441): > 4 µM; IC50 (SCC-9): > 4 µM; IC50 (SK-MES-1): > 4 µM; IC50 (SK-N-AS): > 4 µM; IC50 (SKG-IIIa): > 4 µM; IC50 (SW1088): 1.95 µM; IC50 (T84): > 4 µM; IC50 (CWR22R): > 4 µM; IC50 (A673): > 4 µM; IC50 (ABC-1): 2.33 µM; IC50 (BFTC-905): > 4 µM; IC50 (BXPC-3): > 4 µM; IC50 (TYK-nu): > 4 µM; IC50 (U2OS): > 4 µM; IC50 (U-251): > 4 µM; IC50 (CAMA-1): > 4 µM; IC50 (CHL-1): > 4 µM; IC50 (COLO-680N): > 4 µM |
| CO[C@@H]1[C@H](N(C)C(=O)c2ccccc2)C[C@H]2O[C@]1(C)n1c3ccccc3c3c4c(c5c6ccccc6n2c5c31)C(=O)NC4 [MIDOSTAURIN] |  |  |  | > 0.512 |  |  | > 0.512 |  | 0.16 | 0.179 | > 0.512 |  |  |  |  | > 0.512 | 0.24 | > 0.512 | > 0.512 | > 0.512 | IC50 (BC1 cell line): > 0.512 µM |
